Series [1] in a line: shake-flask lipophilicity (Log P) detection. The conditions noted are these: for Log P: shake-flask gold standard detection. Type of series: physicochemical. The source says: Besides, the present invention further designs a novel naphthol analogue, [F-18]FEONM, with lipophilicity increased. This is consistent with the concept of the structure design for the present invention. By adding a —C2H4O— functional group to a F-18 end, the lipophilicity of [F-18]FEONM is increased to obtain a potential novel brain imaging agent. The present invention develops the high-pressure isolation and purification to achieve the purpose of purification of [F-18]FEONM without toxic compounds.

Series [2] relates to P301S/PS19 transgenic mice. Briefly: brain uptake biodistribution of [F-18]FEONM in P301S/PS19 transgenic mice. The class given is in vivo. The conditions noted are these: 12~13 month-old P301S/PS19 transgenic mice; product purified through an alumina solid-phase extraction column; FIG. 2.

The Log P is a log measure of how a compound divides between an organic and an aqueous phase. A high value points to a more lipophilic compound.

For the compound `CC(=C(C#N)C#N)c1ccc2cc(N(C)CC[18F])ccc2c1` [[F-18]FDDNP, reference compound], in series [1], the “Log P” value is given as 1.93 ± 0.10.
Consider `CC(=C(C#N)C#N)c1ccc2cc(N(C)CCOCCF)ccc2c1` [[F-18]FEONM], for which the “lipophilicity compared with [F-18]FDDNP” value in series [1] (same shake-flask gold standard detection) was “higher than [F-18]FDDNP”. In series [1], the “Log P” value was found to be 2.20 ± 0.17. In series [2], the “brain uptake biodistribution ratios (result in words)” value is “effective to Alzheimer disease stages”.

For the origin of these results see US11247947B2, “Method of high-pressure purification of [f-18]FEONM” (Institute of Nuclear Energy Research, Atomic Energy …, priority 2019, dated 2022).
